One may read the IC50 as the concentration at which inhibition is half-maximal.

We go through 23 molecules from patent US12473304B2, “Heterocyclic PAD4 inhibitors” (BRISTOL-MYERS SQUIBB COMPANY, priority 2020, dated 2025).

Structures are written as SMILES.

In the test the target is human PAD4 (hPAD4) (Homo sapiens (Human), UniProt Q9UM07). Description: RFMS Human PAD4 Functional Assay 1. The note with it: RFMS assay 1; 5 nM hPAD4, 250 μM BAEE substrate, 50 μM calcium, 37° C. The test is classed as biochemical. In a few lines: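 Citrullination product read by RapidFire triple-quad MRM against a modified-citrulline internal standard, after TCA stop and 30 min phenyl glyoxal step at 37 °C. Reaction: 250 μM BAEE, 5 nM human PAD4, 90 min at 37 °C, pH 7.5 HEPES buffer with 50 μM calcium and 5 μM TPEN, following 30 min compound–enzyme preincubation (max 50 μM).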
Chain of human PAD4 (hPAD4) (Q9UM07 whole entry): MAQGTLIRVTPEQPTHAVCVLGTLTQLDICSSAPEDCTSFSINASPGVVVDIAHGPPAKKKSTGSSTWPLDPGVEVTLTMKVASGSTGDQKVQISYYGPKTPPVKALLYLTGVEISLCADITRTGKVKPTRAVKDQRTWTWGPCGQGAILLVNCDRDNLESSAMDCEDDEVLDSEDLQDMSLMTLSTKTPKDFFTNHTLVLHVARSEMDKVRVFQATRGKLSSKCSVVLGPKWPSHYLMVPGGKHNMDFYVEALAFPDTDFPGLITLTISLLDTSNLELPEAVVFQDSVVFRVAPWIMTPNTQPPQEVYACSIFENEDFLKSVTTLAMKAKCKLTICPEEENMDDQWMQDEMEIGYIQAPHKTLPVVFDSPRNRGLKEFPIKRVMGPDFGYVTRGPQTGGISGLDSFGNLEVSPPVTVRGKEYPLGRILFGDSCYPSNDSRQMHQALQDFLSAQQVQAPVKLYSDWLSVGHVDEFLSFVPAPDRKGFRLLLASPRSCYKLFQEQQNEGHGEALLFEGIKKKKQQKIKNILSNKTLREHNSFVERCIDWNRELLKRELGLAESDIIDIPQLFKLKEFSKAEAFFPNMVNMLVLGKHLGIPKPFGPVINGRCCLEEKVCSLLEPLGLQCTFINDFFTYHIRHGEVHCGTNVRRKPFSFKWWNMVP

Turning to `Cc1c(-c2cc3ccc(-c4cccc(O)c4F)nc3n2CC2CC2)nn2cc(C(=O)N3C[C@H](N)C[C@@H](F)C3)cc(F)c12` [Example 55, ((3R,5R)-3-Amino-5-fluoropiperidin-1-yl)(2-(1-(cyclopropylmethyl)-6-(2-fluoro-3-hydroxyphenyl)-1H-pyrrolo[2,3-b]pyridin-2-yl)-4-fluoro-3-methylpyrazolo[1,5-a]pyridin-6-yl)methanone], the IC50 is 0.543 µM.

On to `COCC(=O)N1CCC(c2nccc3cc(-c4nn5cc(C(=O)N6C[C@H](N)C[C@@H](F)C6)cc(OC)c5c4C)n(CC4CC4)c23)CC1` [Example 511, 1-(4-(2-(6-((3R,5R)-3-Amino-5-fluoropiperidine-1-carbonyl)-4-methoxy-3-methylpyrazolo[1,5-a]pyridin-2-yl)-1-(cyclopropylmethyl)-1H-pyrrolo[2,3-c]pyridin-7-yl)piperidin-1-yl)-2-methoxyethan-1-one], for which the IC50 is 0.01 µM.

Take `Cc1c(-c2cc3ccc(-c4ccn5c(C)nnc5c4)nc3n2CC2CC2)nn2cc(C(=O)N3CC4CCC3[C@@H]4N)ccc12` (stereo partly drawn) [Example 70, ((7R)-7-Amino-2-azabicyclo[2.2.1]heptan-2-yl)(2-(1-(cyclopropylmethyl)-6-(3-methyl-[1,2,4]triazolo[4,3-a]pyridin-7-yl)-1H-pyrrolo[2,3-b]pyridin-2-yl)-3-methylpyrazolo[1,5-a]pyridin-6-yl)methanone]: the IC50 was 0.015 µM.

For `COc1cc(C(=O)N2C[C@H](N)C[C@@H](F)C2)cn2nc(-c3cc4ccc(-c5cc(F)c6[nH]c(=O)ccc6c5C)cc4n3CC3CC3)c(C)c12` [Example 225, 6-(2-{6-[(3R,5R)-3-Amino-5-fluoropiperidine-1-carbonyl]-4-methoxy-3-methylpyrazolo[1,5-a]pyridin-2-yl}-1-(cyclopropylmethyl)-1H-indol-6-yl)-8-fluoro-5-methyl-1,2-dihydroquinolin-2-one], the IC50 came out at 0.08 µM.

For the molecule `COc1cc(C(=O)N2C[C@H](N)C[C@@H](F)C2)cc2sc(-c3cc4cccnc4n3CC3CC3)c(C)c12` [Example 138, ((3R,5R)-3-Amino-5-fluoropiperidin-1-yl)(2-(1-(cyclopropylmethyl)-1H-pyrrolo[2,3-b]pyridin-2-yl)-4-methoxy-3-methylbenzo[b]thiophen-6-yl)methanone], the IC50 was 0.252 µM.

Take `COc1cc(C(=O)N2C[C@H](N)C[C@@H](F)C2)cn2nc(-c3cc4ccc(NC[C@@H](F)C(C)(C)O)cc4n3CC3CC3)c(C)c12` [Example 36, ((3R,5R)-3-Amino-5-fluoropiperidin-1-yl)(2-(1-(cyclopropylmethyl)-6-(((R)-2-fluoro-3-hydroxy-3-methylbutyl)amino)-1H-indol-2-yl)-4-methoxy-3-methylpyrazolo[1,5-a]pyridin-6-yl)methanone]: the IC50 is 0.782 µM.

Turning to `COc1cc(C(=O)N2CC3CCC2[C@@H]3N)cc2sc(-c3cc4ccc(-c5ccn6c(C)nnc6c5)cc4n3CC3CC3)c(C)c12` (stereo partly drawn) [Example 122, ((7R)-7-Amino-2-azabicyclo[2.2.1]heptan-2-yl)(2-(1-(cyclopropylmethyl)-6-(3-methyl-[1,2,4]triazolo[4,3-a]pyridin-7-yl)-1H-indol-2-yl)-4-methoxy-3-methylbenzo[b]thiophen-6-yl)methanone], the IC50 turned out to be 0.068 µM.

Consider `COC(C)(C)C(=O)N1CCC(c2cc(F)cc3cc(-c4nn5cc(C(=O)N6C[C@H](N)C[C@@H](F)C6)ccc5c4C)n(CC4CC4)c23)CC1` [Example 501, 1-(4-(2-(6-((3R,5R)-3-Amino-5-fluoropiperidine-1-carbonyl)-3-methylpyrazolo[1,5-a]pyridin-2-yl)-1-(cyclopropylmethyl)-5-fluoro-1H-indol-7-yl)piperidin-1-yl)-2-methoxy-2-methylpropan-1-one], for which the IC50 was determined as 0.13 µM.

For `COc1cc(C(=O)N2C[C@H](N)C[C@@H](F)C2)cn2nc(-c3cc4cccc(C5CN(C(=O)[C@@H](C)OC)C5)c4n3CC3CC3)c(C)c12` [Example 526, (R)-1-(3-(2-(6-((3R,5R)-3-Amino-5-fluoropiperidine-1-carbonyl)-4-methoxy-3-methylpyrazolo[1,5-a]pyridin-2-yl)-1-(cyclopropylmethyl)-1H-indol-7-yl)azetidin-1-yl)-2-methoxypropan-1-one], the IC50 was 0.26 µM.

As for `Cc1c(-c2cc3cc(F)cc(C4CCN(C(=O)[C@H]5CC[C@@H](O)CC5)CC4)c3n2CC2CC2)nn2cc(C(=O)N3C[C@H](N)C[C@@H](F)C3)ccc12` [Example 486, ((3R,5R)-3-Amino-5-fluoropiperidin-1-yl)(2-(1-(cyclopropylmethyl)-5-fluoro-7-(1-((1s,4s)-4-hydroxycyclohexane-1-carbonyl)piperidin-4-yl)-1H-indol-2-yl)-3-methylpyrazolo[1,5-a]pyridin-6-yl)methanone], the IC50 was found to be 0.07 µM.

As to `Cc1c(-c2cc3ccc(-c4ccc5cn[nH]c5c4F)nc3n2CC2CC2)nn2cc(C(=O)N3CC4CCC3[C@@H]4N)ccc12` (stereo partly drawn) [Example 306, (7R)-2-{2-[1-(Cyclopropylmethyl)-6-(7-fluoro-1H-indazol-6-yl)-1H-pyrrolo[2,3-b]pyridin-2-yl]-3-methylpyrazolo[1,5-a]pyridine-6-carbonyl}-2-azabicyclo[2.2.1]heptan-7-amine], the IC50 stood at 0.03 µM.

Take `Cc1c(-c2cc3ccc(C4CC4)cc3n2CC2CC2)oc2cc(C(=O)N3CC4CCC3[C@@H]4N)ccc12` (stereo partly drawn) [Example 187, ((7R)-7-Amino-2-azabicyclo[2.2.1]heptan-2-yl)(2-(6-cyclopropyl-1-(cyclopropylmethyl)-1H-indol-2-yl)-3-methylbenzofuran-6-yl)methanone]: the IC50 is 1.55 µM.

`COC(=O)Nc1ccc(-c2ccc3cc(-c4nn5cc(C(=O)N6CC7CCC6[C@@H]7N)ccc5c4C)n(CC4CC4)c3n2)cn1` (stereo partly drawn) [Example 308, Methyl N-[5-(2-{6-[(7R)-7-amino-2-azabicyclo[2.2.1]heptane-2-carbonyl]-3-methylpyrazolo[1,5-a]pyridin-2-yl}-1-(cyclopropylmethyl)-1H-pyrrolo[2,3-b]pyridin-6-yl)pyridin-2-yl]carbamate]: the IC50 was 0.05 µM.

Turning to `Cc1c(-c2cc3cccc(C4CCN(C(=O)[C@@H](C)O)CC4)c3n2CC2CC2)nn2cc(C(=O)N3C[C@H](N)C[C@@H](F)C3)ccc12` [Example 472, (R)-1-(4-(2-(6-((3R,5R)-3-amino-5-fluoropiperidine-1-carbonyl)-3-methylpyrazolo[1,5-a]pyridin-2-yl)-1-(cyclopropylmethyl)-1H-indol-7-yl)piperidin-1-yl)-2-hydroxypropan-1-one], the IC50 amounted to 0.06 µM.

As for `COc1cc(C(=O)N2CC3CCC2[C@@H]3N)cn2nc(-c3cc4cccnc4n3CC3CC3)c(C)c12` (stereo partly drawn) [Example 1, ((7R)-7-Amino-2-azabicyclo[2.2.1]heptan-2-yl)(2-(1-(cyclopropylmethyl)-1H-pyrrolo[2,3-b]pyridin-2-yl)-4-methoxy-3-methylpyrazolo[1,5-a]pyridin-6-yl)methanone], the IC50 is 0.28 µM.

As for `Cc1c(-c2cc3cccc(C4CCN(C(=O)[C@H]5CC[C@H](O)CC5)CC4)c3n2CC2CC2)nn2cc(C(=O)N3CCC[C@@H](N)C3)cc(F)c12` [Example 415, ((R)-3-Aminopiperidin-1-yl)(2-(1-(cyclopropylmethyl)-7-(1-((1r,4r)-4-hydroxycyclohexane-1-carbonyl)piperidin-4-yl)-1H-indol-2-yl)-4-fluoro-3-methylpyrazolo[1,5-a]pyridin-6-yl)methanone], the IC50 is 0.46 µM.

As for `CC(=O)N1CCC(c2cccc3cc(-c4nn5cc(C(=O)N6CC7CCC6[C@@H]7N)ccc5c4C)n(CC4CC4)c23)CC1` (stereo partly drawn) [Example 477, 1-(4-(2-(6-((7R)-7-Amino-2-azabicyclo[2.2.1]heptane-2-carbonyl)-3-methylpyrazolo[1,5-a]pyridin-2-yl)-1-(cyclopropylmethyl)-1H-indol-7-yl)piperidin-1-yl)ethan-1-one], the IC50 amounted to 0.02 µM.

As to `Cc1c(-c2cc3cc(F)cc(C4CCN(C(=O)C5CCCO5)CC4)c3n2CC2CC2)nn2cc(C(=O)N3CCC[C@@H](N)C3)ccc12` (single isomer, unassigned) [Example 488], the IC50 is 0.25 µM.

As for `Cc1c(-c2cc3ccc(-c4ccc(C(N)=O)c(F)c4)nc3n2CC2CC2)oc2cc(C(=O)N3CC4CCC3[C@@H]4N)ccc12` (stereo partly drawn) [Example 170, 4-(2-(6-((7R)-7-amino-2-azabicyclo[2.2.1]heptane-2-carbonyl)-3-methylbenzofuran-2-yl)-1-(cyclopropylmethyl)-1H-pyrrolo[2,3-b]pyridin-6-yl)-2-fluorobenzamide], the IC50 came to 0.135 µM.

For `COc1cc(C(=O)N2CC3CCC2[C@@H]3N)cc2oc(-c3cc4cccnc4n3CC3CC3)c(C)c12` (stereo partly drawn) [Example 145, ((7R)-7-Amino-2-azabicyclo[2.2.1]heptan-2-yl)(2-(1-(cyclopropylmethyl)-1H-pyrrolo[2,3-b]pyridin-2-yl)-4-methoxy-3-methylbenzofuran-6-yl)methanone], the IC50 amounted to 0.285 µM.

As to `Cc1c(-c2cc3ccnc(OCC4CNC(=O)C4)c3n2CC2CC2)nn2cc(C(=O)N3C[C@H](N)C[C@@H](F)C3)ccc12` (single isomer, unassigned; isomer 1) [Example 614], the IC50 turned out to be 0.06 µM.

With `COc1cc(C(=O)N2CCC[C@@H](N)C2)cn2nc(-c3cc4ccc(N5CCC(N(C)C(C)=O)CC5)cc4n3CC3CC3)c(C)c12` [Example 252, N-[1-(2-{6-[(3R)-3-Aminopiperidine-1-carbonyl]-4-methoxy-3-methylpyrazolo[1,5-a]pyridin-2-yl}-1-(cyclopropylmethyl)-1H-indol-6-yl)piperidin-4-yl]-N-methylacetamide], the IC50 is 0.79 µM.

For the molecule `Cc1c(-c2cc3ccc(-c4ccc5[nH]ncc5c4)nc3n2CC2CC2)nn2cc(C(=O)N3C[C@H](N)C[C@@H](F)C3)cc(Cl)c12` [Example 290, (3R,5R)-1-{4-Chloro-2-[1-(cyclopropylmethyl)-6-(1H-indazol-5-yl)-1H-pyrrolo[2,3-b]pyridin-2-yl]-3-methylpyrazolo[1,5-a]pyridine-6-carbonyl}-5-fluoropiperidin-3-amine], the IC50 turned out to be 2.72 µM.
